pIC50: −log10 of the molar value.
Test system: plasma ALP (80-90% containing TNAP)
Assay: Inhibitory test of plasma TNAP activity in B6 mouse
Format: in vivo
Details: administered orally, average inhibition from 0 hour to 6 hours after administration
Method: After blood sampling from the tail vein using a heparin-treated hematocrit capillary tube (EM Meister Hematocrit Capillary Tube, AS ONE Corp.) (as the sample before compound administration), each test compound suspended in a 0.5% methylcellulose solution (powder purchased from Wako Pure Chemical Industries, Ltd. was adjusted to 0.5% with Otsuka distilled water) was administered orally to the mouse. 1, 2, 4, 6, and 24 hours after the administration, blood was collected from the tail vein using a heparin-treated hematocrit capillary tube to obtain a plasma sample. The plasma sample was added to an assay buffer (1 M Tris, 1 M MgCl2, 20 mM ZnCl2, and water, pH 7.5), and the mixture was left standing for 5 minutes. Then, the absorbance at 405 nm was measured and used as a blank. The substrate pNPP was added to the plasma sample and incubated at room temperature for 180 minutes. Then, the absorbance (ABS: 405 nm) was measured using a microplate reader (model plus 384, Molecular Devices, LLC), and the concentration of produced p-nitrophenol was calculated. The blank was subtracted from all measurement values to calculate TNAP activity at each time point with the TNAP activity of the sample before compound administration defined as 100%. The pharmaceutical effect of the test compound was evaluated by the average inhibition of plasma ALP (80-90% containing TNAP) activity for 6 hours from 0 hour to 6 hours after the administration of the test compound. It was calculated according to the following expression: 100−((plasma ALP activity at 0 hr+plasma ALP activity at 1 hr)*1/2+(plasma ALP activity at 1 hr+plasma ALP activity at 2 hr)*1/2+(plasma ALP activity at 2 hr+plasma ALP activity at 4 hr)*2/2+(plasma ALP activity at 4 hr+plasma ALP activity at 6 hr)*2/2)/6.

Point of comparison: `COc1ccc(Cl)cc1S(=O)(=O)[N-]c1cnc2c(c1)C(=O)NCCO2.[K+]` [Example 47, Potassium [(5-chloro-2-methoxyphenyl)sulfonyl](5-oxo-2,3,4,5-tetrahydropyrido[3,2-f][1,4]oxazepin-7-yl)azanide], “Plasma ALP inhibition (6 h ave. inhibition %)” value 54.7%. Against it:
- COc1ccc(F)cc1S(=O)(=O)[N-]c1cnc2c(c1)C(=O)NCCO2.[K+] [Example 48, Potassium [(5-fluoro-2-methoxyphenyl)sulfonyl](5-oxo-2,3,4,5-tetrahydropyrido[3,2-f][1,4]oxazepin-7-yl)azanide] — higher, 61.6%
- O=C1NCCOc2ncc([N-]S(=O)(=O)c3cc(Cl)ccc3OC(F)(F)F)cc21.[K+] [Example 50, Potassium {[5-chloro-2-(trifluoromethoxy)phenyl]sulfonyl}(5-oxo-2,3,4,5-tetrahydropyrido[3,2-f][1,4]oxazepin-7-yl)azanide] — higher, 56.0%
- COc1ccc(Cl)cc1S(=O)(=O)[N-]c1cnc2c(c1)C(=O)N[C@@H](CO)CO2.[K+] [Example 51, Potassium [(5-chloro-2-methoxyphenyl)sulfonyl][(3S)-3-(hydroxymethyl)-5-oxo-2,3,4,5-tetrahydropyrido[3,2-f][1,4]oxazepin-7-yl]azanide] — higher, 63.7%
- COc1ccc(F)cc1S(=O)(=O)[N-]c1cnc2c(c1)C(=O)N[C@@H](CO)CO2.[K+] [Example 52, Potassium [(5-fluoro-2-methoxyphenyl)sulfonyl][(3S)-3-(hydroxymethyl)-5-oxo-2,3,4,5-tetrahydropyrido[3,2-f][1,4]oxazepin-7-yl]azanide] — higher, 61.3%
- COc1ccc(Br)cc1S(=O)(=O)[N-]c1cnc2c(c1)C(=O)N[C@@H](CO)CO2.[K+] [Example 53, Potassium [(5-bromo-2-methoxyphenyl)sulfonyl][(3S)-3-(hydroxymethyl)-5-oxo-2,3,4,5-tetrahydropyrido[3,2-f][1,4]oxazepin-7-yl]azanide] — higher, 59.2%
- O=C1N[C@@H](CO)COc2ncc([N-]S(=O)(=O)c3cc(Cl)ccc3OC(F)(F)F)cc21.[K+] [Example 54, Potassium {[5-chloro-2-(trifluoromethoxy)phenyl]sulfonyl}[(3S)-3-(hydroxymethyl)-5-oxo-2,3,4,5-tetrahydropyrido[3,2-f][1,4]oxazepin-7-yl]azanide] — higher, 74.8%
- COc1ccc(Cl)cc1S(=O)(=O)[N-]c1cnc2c(c1)C(=O)NC1(CC1)CO2.[K+] [Example 55, Potassium [(5-chloro-2-methoxyphenyl)sulfonyl](5′-oxo-4′,5′-dihydrospiro[cyclopropane-1,3′-pyrido[3,2-f][1,4]oxazepin]-7′-yl)azanide] — higher, 58.9%
- COc1ccc(F)cc1S(=O)(=O)[N-]c1cnc2c(c1)C(=O)NC1(CC1)CO2.[K+] [Example 57, Potassium [(5-fluoro-2-methoxyphenyl)sulfonyl](5′-oxo-4′,5′-dihydrospiro[cyclopropane-1,3′-pyrido[3,2-f][1,4]oxazepin]-7′-yl)azanide] — lower, 53.5%
- O=C1NC2(CC2)COc2ncc([N-]S(=O)(=O)c3cc(Cl)ccc3OC(F)(F)F)cc21.[K+] [Example 58, Potassium {[5-chloro-2-(trifluoromethoxy)phenyl]sulfonyl}(5′-oxo-4′,5′-dihydrospiro[cyclopropane-1,3′-pyrido[3,2-f][1,4]oxazepin]-7′-yl)azanide] — lower, 50.3%
- CCOc1ccc(F)cc1S(=O)(=O)[N-]c1cnc2c(c1)C(=O)NC1(CC1)CO2.[K+] [Example 59] — higher, 66.2%

Biological target: human TNAP (Homo sapiens (Human), UniProt P05186)
Assay: Inhibitory test of TNAP activity (pNPP substrate, p-nitrophenol production)
Format: biochemical
Details: inhibition of human TNAP activity, incubated at room temperature for 60 minutes
Method: COS 1 cells (DS Pharma Biomedical Co., Ltd.) were transfected with human TNAP (OriGene Technologies, Inc.) using Lipofectamine LTX & Plus reagent (Invitrogen Corp.). On the next day, the medium was replaced with a fresh medium, and the cells were cultured in an incubator for 3 days. After 3 days, the culture supernatant was collected and concentrated by centrifugation at 5000 G for 30 minutes using Amicon 14, 10^4 cut (Merck Millipore). The concentrated culture supernatant was dialyzed against 5 L of 50 mM Tris/200 mM NaCl/1 mM MgCl2/20 μM ZnCl2 twice and used as an enzyme source (enzyme solution). The substrate pNPP (ProteoChem Inc.) was adjusted to 3.1 mM with Milli-Q water, and a solution of each test compound dissolved in dimethyl sulfoxide (DMSO; Wako Pure Chemical Industries, Ltd.) by 6 serial dilutions at a 5-fold common ratio from 100 μM, or DMSO was added thereto at a final concentration of 1% by volume. The enzyme solution adjusted to 2 μg/mL with an assay buffer (200 mM Tris/2 mM MgCl2/0.04 mM ZnCl2/0.01% Tween 20) was added in the same amount of the substrate solution and incubated at room temperature for 60 minutes. Then, the absorbance (ABS: 405 nm) was measured using a microplate reader (model plus 384, Molecular Devices, LLC), and the concentration of produced p-nitrophenol was calculated.

Sequence of human TNAP (P05186 18-502): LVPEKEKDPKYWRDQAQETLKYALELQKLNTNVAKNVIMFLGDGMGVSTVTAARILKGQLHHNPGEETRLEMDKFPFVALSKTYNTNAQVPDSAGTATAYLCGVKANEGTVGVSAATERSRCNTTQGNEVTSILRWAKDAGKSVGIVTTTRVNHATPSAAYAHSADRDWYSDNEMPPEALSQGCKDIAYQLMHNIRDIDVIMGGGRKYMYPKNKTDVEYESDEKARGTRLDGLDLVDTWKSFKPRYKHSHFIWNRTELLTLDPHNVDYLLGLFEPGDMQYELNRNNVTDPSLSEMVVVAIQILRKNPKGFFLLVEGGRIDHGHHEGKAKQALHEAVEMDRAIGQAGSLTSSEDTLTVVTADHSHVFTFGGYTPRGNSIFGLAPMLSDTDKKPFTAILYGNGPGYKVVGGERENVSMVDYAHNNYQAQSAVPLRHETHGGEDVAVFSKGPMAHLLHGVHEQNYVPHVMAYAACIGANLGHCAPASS

Point of comparison: `COc1ccc(Cl)cc1S(=O)(=O)Nc1cnc2c(c1)C(=O)NC(C(=O)N(C)C)CO2` (stereo not shown) [Example 45, 7-{[(5-Chloro-2-methoxyphenyl)sulfonyl]amino}-N,N-dimethyl-5-oxo-2,3,4,5-tetrahydropyrido[3,2-f][1,4]oxazepine-3-carboxamide], pIC50 7.84. Against it:
- COc1ccc(Cl)cc1S(=O)(=O)Nc1cnc2c(c1)C(=O)N[C@@H](CCO)CO2 [Example 33, 5-Chloro-N-[(3S)-3-(2-hydroxyethyl)-5-oxo-2,3,4,5-tetrahydropyrido[3,2-f][1,4]oxazepin-7-yl]-2-methoxybenzenesulfonamide] — 0.88 log units higher, 8.72
- COc1ccc(Cl)cc1S(=O)(=O)Nc1cnc2c(c1)C(=O)N[C@@H](CC(=O)N(C)C)CO2 [Example 34, 2-[(3S)-7-{[(5-Chloro-2-methoxyphenyl)sulfonyl]amino}-5-oxo-2,3,4,5-tetrahydropyrido[3,2-f][1,4]oxazepin-3-yl]-N,N-dimethylacetamide] — 0.33 log units higher, 8.17
- COc1ccc(Cl)cc1S(=O)(=O)Nc1cnc2c(c1)C(=O)NC1(CC1)CO2 [Example 35, 5-Chloro-2-methoxy-N-(5′-oxo-4′,5′-dihydrospiro[cyclopropane-1,3′-pyrido[3,2-f][1,4]oxazepin]-7′-yl)benzenesulfonamide] — 1.12 log units higher, 8.96
- COc1ccc(F)cc1S(=O)(=O)Nc1cnc2c(c1)C(=O)NC1(CC1)CO2 [Example 36, 5-Fluoro-2-methoxy-N-(5′-oxo-4′,5′-dihydrospiro[cyclopropane-1,3′-pyrido[3,2-f][1,4]oxazepin]-7′-yl)benzenesulfonamide] — 0.82 log units higher, 8.66
- COc1ccc(Cl)cc1S(=O)(=O)Nc1cnc2c(c1)C(=O)N(c1ccccc1)CCO2 [Example 37, 5-Chloro-2-methoxy-N-(5-oxo-4-phenyl-2,3,4,5-tetrahydropyrido[3,2-f][1,4]oxazepin-7-yl)benzenesulfonamide] — 0.48 log units lower, 7.36
- COc1ccc(Cl)cc1S(=O)(=O)Nc1cnc2c(c1)C(=O)N(c1ccccn1)CCO2 [Example 38, 5-Chloro-2-methoxy-N-[5-oxo-4-(pyridin-2-yl)-2,3,4,5-tetrahydropyrido[3,2-f][1,4]oxazepin-7-yl]benzenesulfonamide] — 0.23 log units lower, 7.61
- COc1ccc(Cl)cc1S(=O)(=O)Nc1cnc2c(c1)C(=O)N(c1cccnc1)CCO2 [Example 39, 5-Chloro-2-methoxy-N-[5-oxo-4-(pyridin-3-yl)-2,3,4,5-tetrahydropyrido[3,2-f][1,4]oxazepin-7-yl]benzenesulfonamide] — within 0.2 log units, 7.88
- O=C1NC2(CC2)COc2ncc(NS(=O)(=O)c3cc(Cl)ccc3OC(F)(F)F)cc21 [Example 40, 5-Chloro-N-(5′-oxo-4′,5′-dihydrospiro[cyclopropane-1,3′-pyrido[3,2-f][1,4]oxazepin]-7′-yl)-2-(trifluoromethoxy)benzenesulfonamide] — 0.88 log units higher, 8.72
- O=C1NC2(CC2)COc2ncc(NS(=O)(=O)c3cc(F)ccc3OC(F)(F)F)cc21 [Example 41, 5-Fluoro-N-(5′-oxo-4′,5′-dihydrospiro[cyclopropane-1,3′-pyrido[3,2-f][1,4]oxazepin]-7′-yl)-2-(trifluoromethoxy)benzenesulfonamide] — 0.73 log units higher, 8.57
- CCOc1ccc(F)cc1S(=O)(=O)Nc1cnc2c(c1)C(=O)NC1(CC1)CO2 [Example 42, 2-Ethoxy-5-fluoro-N-(5′-oxo-4′,5′-dihydrospiro[cyclopropane-1,3′-pyrido[3,2-f][1,4]oxazepin]-7′-yl)benzenesulfonamide] — 1.38 log units higher, 9.22
- COc1ccc(OC)c(S(=O)(=O)Nc2cnc3c(c2)C(=O)NC2(CC2)CO3)c1 [Example 43, 2,5-Dimethoxy-N-(5′-oxo-4′,5′-dihydrospiro[cyclopropane-1,3′-pyrido[3,2-f][1,4]oxazepin]-7′-yl)benzenesulfonamide] — 1.16 log units higher, 9.00
- COc1ccc(Cl)cc1S(=O)(=O)Nc1cnc2c(c1)C(=O)NC(c1cccnc1)CO2 (stereo not shown) [Example 44, 5-Chloro-2-methoxy-N-[5-oxo-3-(pyridin-3-yl)-2,3,4,5-tetrahydropyrido[3,2-f][1,4]oxazepin-7-yl]benzenesulfonamide] — 1.01 log units higher, 8.85
- COc1ccc(Cl)cc1S(=O)(=O)Nc1cnc2c(c1)C(=O)NC(C(=O)N1CCOCC1)CO2 (stereo not shown) [Example 46, 5-chloro-2-methoxy-N-[3-(morpholin-4-ylcarbonyl)-5-oxo-2,3,4,5-tetrahydropyrido[3,2-f][1,4]oxazepin-7-yl]benzenesulfonamide] — 0.24 log units lower, 7.60

Source: patent US9879032B2, “Pyridine compounds” (Daiichi Sankyo Company, Limited, priority 2015, dated 2018)
